According to patent publication US20250213475A1, “LIPOSOMAL COMPOSITIONS” (R.G.C.C. Holdings AG, priority 2022, published 2025):

Key:
[1] = Encapsulation efficacy, indirect from free drug in supernatant by UV/VIS; assay type: physicochemical; conditions: analogue 1 mg/mL
Method: At the end of the above encapsulation process, the solution was centrifuged at 15.000 rpm for 20 minutes and the supernatant was kept for indirect encapsulation determination. The precipitate was lyophilized and kept for further analysis and characterization.
The supernatants after each centrifugation were kept and used to evaluate the amount of the free drug. Subtracting the amount of the free drug at the supernatant from the total added drug, the rest is considered as encapsulated. Briefly, from each solution samples were collected in order to prepare solutions, which were then evaluated with UV/VIS spectrometry. Based on standard curves, in which the different nucleosides were measured in solution on a UV-VIS spectrometer, different the remaining quantity was calculated. The encapsulation efficacy was measured then based on the following equation:
[formula] Quantity of the Nucleoside Analogue in the liposome=(Quantity of the Nucleoside Analogue initially added−Quantity of the Nucleoside Analogue in the supernatant).
For example, for {[2-(6-amino-9H-purin-9-yl)quinazolin-4-yl]oxy}phosphonic acid system code 1, after the centrifugation, we keep the supernatant from which, a fraction is collected to prepare a solution with targeted concertation of 10 ppm. Based on the Dilution Equation, C1V1=C2V2, C1=1000, because we consider, at the initial solution that the concentration is 1000 ppm (based on the fact that all of the added nucleoside analogue would be in the supernatant) • C2: is the targeted concentration, here 10 ppm • V2: volume of the final solution, here 10 mL
Thus, we take 100 uL from the supernatant and we dilute it to 10 mL final volume. The sample is quantified by UV/VIS spectrometry and we calculate the actual concentration of the sample. The concentration is converted to mass and we can estimate the final mass of the nucleoside analogue in the supernatant and in the liposome.

[2] = system: human colorectal carcinoma HCT116 cell line; test: AlamarBlue cytotoxicity assay, HCT116; assay type: cell-based; conditions: HCT116, 0.01 μM to 10 μM, 24 h, 48 h and 72 h
Method: (§1) All cell lines were maintained at 37° C. in a humidified 5% CO2 atmosphere. AlamarBlue assay was performed to assess cell viability. The viable cells were seeded at a density of 2×10^4 (200 μl/well) in 96-well plate and incubated at 37° C. and 5% CO2 for 24 h to form a cell monolayer. After 24 h of incubation, supernatant on the monolayer was aspirated and 200 μl of medium and varying concentrations of the substances were added and incubated for 24 h, 48 h and 72 h time points. […] Fluorescence was measured at 560 nm excitation and 590 nm emission wavelength. The experiment was performed in triplicates. The average fluorescence was calculated for each triplicate. One sample t-test was used to determine differences in the mean by comparing the treated samples with the untreated controls. P values <0.05 were considered to indicate a statistically significant difference.

[3] = system: human breast adenocarcinoma (triple negative) MDA-MB-231 cell line; test: AlamarBlue cytotoxicity assay, MDA-MB-231; assay type: cell-based; conditions: MDA-MB-231, 0.01 μM to 10 μM, 24 h, 48 h and 72 h
Method: The human breast adenocarcinoma (luminal type) MCF7 cell line (ECACC 86012803), human breast adenocarcinoma (triple negative) MDA-MB-231 cell line (ECACC 92020424), human colorectal carcinoma HCT116 cell line (ECACC 91091005) and human lung cancer COLO699N cell line (ECACC 93052608) were culture in RPMI 1640 medium Catalog #R0883 (Sigma-Aldrich, Darmstadt, Germany) supplemented with 10% fetal bovine serum Catalog #FB-1001/500 (BioSera, Nuaille, France) and 1% L-glutamine Catalog #G7513-100ML (Sigma-Aldrich, Darmstadt, Germany). All cell lines were maintained at 37° C. in a humidified 5% CO2 atmosphere. AlamarBlue assay was performed to assess cell viability. The viable cells were seeded at a density of 2×10^4 (200 μl/well) in 96-well plate and incubated at 37° C. and 5% CO2 for 24 h to form a cell monolayer. After 24 h of incubation, supernatant on the monolayer was aspirated and 200 μl of medium and varying concentrations of the substances were added and incubated for 24 h, 48 h and 72 h time points. […] Fluorescence was measured at 560 nm excitation and 590 nm emission wavelength. […] The average fluorescence was calculated for each triplicate. […] Results were calculated using the Microsoft Excel 2016. […]

[4] = system: human breast adenocarcinoma (luminal type) MCF7 cell line; test: AlamarBlue cytotoxicity assay, MCF7; assay type: cell-based; conditions: MCF7, 0.01 μM to 10 μM, 24 h, 48 h and 72 h
Method: as §1

[5] = system: human lung cancer COLO699N cell line; test: AlamarBlue cytotoxicity assay, COLO699N; assay type: cell-based; conditions: 0.01 μM to 10 μM, 24 h, 48 h and 72 h
Method: as §1

[6] = liposomal system code 1, DSPE-PEG:CHOL:OA
[7] = liposomal system code 2, DSPE-PEG:CHOL
[8] = liposomal system code 3, DSPE-PEG:PC:CHOL
[9] = liposomal system code 4, DSPE-PEG:CHOL:OA:PC
[10] = liposomal system code 5, DSPE-PEG:OA

| SMILES | Encapsulation Efficacy (EE %) [1, 6] [%] | Encapsulation Efficacy (EE %) [1, 7] [%] | Encapsulation Efficacy (EE %) [1, 8] [%] | Encapsulation Efficacy (EE %) [1, 9] [%] | Encapsulation Efficacy (EE %) [1, 10] [%] | cytotoxic effect (in words) [2] | cytotoxic effect (in words) [3] | cytotoxic effect (in words) [4] | cytotoxic effect (in words) [5] |
| --- | --- | --- | --- | --- | --- | --- | --- | --- | --- |
| Nc1ncnc2c1ncn2-c1nc(O)c2ccccc2n1 [2-(6-Amino-9H-purin-9-yl)quinazolin-4-ol, 2-(6-amino-9H-purin-9-yl)quinazolin-4-ol] | 55.2 | 55.2 | 65.1 | 54.4 | 65.6 | no statistically significant cytotoxic effect | no statistically significant cytotoxic effect | no statistically significant cytotoxic effect | no statistically significant cytotoxic effect |
| Nc1ccn(-c2nc(O)c3ccccc3n2)c(=O)n1 [4-amino-1-(4-hydroxyquinazolin-2-yl)-1,2-dihydropyrimidin-2-one] | – | 73.6 | 76.2 | – | – | – | – | – | – |
| CC(=O)Nc1ccn(-c2nc(O)c3ccccc3n2)c(=O)n1 [N-[1-(4-hydroxyquinazolin-2-yl)-2-oxo-1,2-dihydropyrimidin-4-yl]acetamide] | – | 58.1 | 89.9 | – | – | – | – | – | – |
| Nc1ncnc2c1ncn2-c1nc(OP(=O)(O)O)c2ccccc2n1 [{[2-(6-amino-9H-purin-9-yl)quinazolin-4-yl]oxy}phosphonic acid] | 60.8 | 76.8 | 50.0 | 60.8 | 70.4 | – | – | – | – |
